From patent US20140130191A1, “METHODS FOR TREATING IMMUNE-MEDIATED DISEASES OF THE NERVOUS SYSTEM ADMINISTERING A COMPOUND COMPRISING AGENTS THAT INHIBIT PROKINETICIN RECEPTORS ACTIVITY” (FONDAZIONE I.R.C.C.S. ISTITUTO NEUROLOGICO "CARLO BESTA", priority 2011, published 2014)

Tests used:
[1] = tested on: relapsing-remitting PLP139-151 induced EAE in SJL mice; assay: Relapsing-remitting EAE in SJL mice, preventive treatment regimen; type: in vivo; conditions: for Incidence (%): PLP139-151 in CFA; for severity of the disease (in words): preventive treatment, 500 μg/kg
Excerpt: (§1) The relapsing-remitting EAE model was obtained in female SJL mice by immunization with myelin proteolipid protein fragment 139-151 (PLP139-151) in complete Freund's adjuvant (CFA) [Pedotti et al., Nat Immunol 2001]. The chronic EAE model was obtained in C57BL/6 mice as mentioned before.
(§2) We used non-peptide prokineticin receptors antagonist drugs called PC1 and PC7 (whose chemical structure is shown in FIG. 1) to chronically treat the mice starting both from the time of induction of EAE (day 0; preventive treatment) and from the onset of the first symptoms of EAE (day 10-12, approximately; therapeutic treatment).
(§3) With reference to FIG. 4, the non-peptide prokineticin receptor 1 and 2 antagonist PCI was administered intraperitoneally to 8-12 week old female SJL mice in which EAE had been induced by immunization with PLP139-151 (100 μg/mouse) in CFA. The PC1 was given at a dose of 500 μg/kg (n=10). As a control, an equal amount of saline solution was injected (vehicle) (n=10). The treatments began at the time of induction of EAE (preventive treatment), or, more specifically, 4 hours after the induction of EAE. Ten mice per group were used. The graph represents the average daily disease score±standard error of the mean (SEM). A scale of 0 to 5 was used to attribute the score, where 0 is the absence of symptoms and 5 is death (as described in Pedotti et al, Nat Immunol 2001). *p<0.05 for two-tailed unpaired Student's t test vs Control. The results are representative of three consecutive experiments that gave similar results.
as §3, with “6,” for “4,”, “PC-7” for “PCI”, “PC7” for “PC1”, “μg /kg” for “μg/kg”, “(SEM).” for “(SEM). A scale of 0 to 5 was used to attribute the score, where 0 is the absence of symptoms and 5 is death (as described in Pedotti et al, Nat Immunol 2001). *p<0.05 for two-tailed unpaired Student's t test vs Control.”

splenocytes = assay: T-cell response in splenocytes of mice with relapsing-remitting EAE, restimulated in vitro with PLP139-151; type: cell-based
Procedure: With reference to FIG. 5, 8-12 week old female SJL mice in which EAE had been induced by immunization with PLP139-151 in CFA were preventively treated (day 0) with PC1 at a dose of 500 μg/kg per day, or with vehicle as described in FIG. 4. The splenocytes were obtained 35 days after immunization with PLP139-151, and were restimulated in vitro with the antigen PLP139-151 at different concentrations or with the medium.
To assay proliferation, after 48 hours of incubation with 5% Co2 at 37° C., the cultures were loaded for 18 hours with 0.5 μCi 3H-thymidine per well. To assay cytokine production, splenocytes were restimulated in vitro with the antigen PLP139-151 at different concentrations or with the medium. The concentration of Interferon-gamma (IFN-gamma), tumour necrosis factor (TNF), Interleukine-6 (IL-6), IL-17, IL-4, and IL-10 was determined in duplicate using the ELISA technique (ELISA DuoSet, Pharmingen, CA). The results are representative of two consecutive experiments that gave similar results.

[2] = tested on: chronic MOG35-55 induced EAE in C57B1/6 mice; assay: Chronic EAE in C57B1/6 mice, therapeutic treatment regimen; type: in vivo
Excerpt: (§4) In the study conducted we verified the expression of PK-2 and its receptors PK-R1 and PK-R2 in the experimental model of chronic EAE, an experimental model of MS. The chronic EAE model was obtained in C57B1/6 mice by immunization with myelin oligodendrocyte glycoprotein peptide fragment 35-55 (MOG35-55) and PTX (Pertussis toxin) [Pedotti et al., PNAS 2003]. During chronic EAE, we observed an increase of mRNA expression of PK-2 by lymph node cells and purified CD4+ T cells in C57B1/6 mice during the disease. This increase of mRNA expression started before the onset of the disease and is less significant after its onset (FIG. 2). We observed also an important increase of the levels of the protein PK-2 in the serum of mice with MOG35-55 induced EAE (FIG. 3). This increase of PK-2 was accompanied by a dramatic reduction of PK-R2 expression in lymph node cells and CD4+T cells. […] Thus, the couple PK-2/PK-R1 seemed to play an important role during EAE, the experimental model of MS.
as §2
With reference to FIG. 10, the non-peptide prokineticin receptor 1 and 2 antagonist PC-7 was administered intraperitoneally to 8-12 week old female C57B1/6 mice in which chronic EAE had been induced by immunization with MOG35-55 (100 μg/mouse) and PTX (400 ng/mouse). The PC-7 was given at a dose of 500 μg /kg (n=10). As a control, an equal amount of saline solution was injected (vehicle) (n=10). The treatments began on the onset of the first symptoms of the disease (day 12). Ten mice per group were used. The graph represents the average daily disease score±standard error of the mean (SEM). The results are representative of two consecutive experiments that gave similar results.

DLN cells [3] = assay: T-cell response in draining lymph node cells of mice with chronic EAE, restimulated in vitro with MOG35-55; type: cell-based; conditions: restimulated with MOG35-55, vs vehicle
Procedure: With reference to FIG. 11, 8-12 week old female C57B1/6 mice in which chronic EAE had been induced by immunization with MOG35-55 were preventively treated (day 0) with PC-7 at a dose of 500 μg/kg per day or with a vehicle as described in the previous experiments. The draining lymph nodes (DLN, inguinal and axillary) were obtained 10 days after immunization with MOG35-55. To assay proliferation, the DLN cells were restimulated in vitro with MOG35-55 at different concentrations, with Concanavalin A (2 μg/ml), or with the medium. Data are expressed as mean cpm±SEM, ng/ml±SEM, or pg/ml±SEM.
(§5) After 48 hours of incubation with 5% Co2 at 37° C., the cultures were loaded for 18 hours with 0.5 μCi 3H-thymidine per well.
To assay cytokine production, DLN cells were restimulated in vitro with MOG35-55 at different concentrations or with the medium.

DLN cells [4] = assay: T-cell response in draining lymph node cells of mice with relapsing-remitting EAE, restimulated in vitro with PLP139-151; type: cell-based; conditions: restimulated with PLP139-151, vs vehicle
Procedure: With reference to FIG. 8, 8-12 week old female SJL mice in which EAE had been induced by immunization with PLP139-151 in CFA were preventively treated (day 0) with PC-7 at a dose of 500 μg/kg per day or with vehicle as described in the previous experiments. The draining lymph nodes (DLN, inguinal and axillary) were obtained 7 days after immunization with PLP139-151. To assay proliferation, the DLN cells were restimulated in vitro with the antigen PLP139-151 at different concentrations, with Concanavalin A (2 μg /ml), or with the medium.
as §5
To assay cytokine production, DLN cells were restimulated in vitro with the antigen PLP139-151 at different concentrations or with the medium. Data are expressed as mean cpm±SEM, ng/ml±SEM, or pg/ml±SEM.

[5] = tested on: chronic MOG35-55 induced EAE in C57B1/6 mice; assay: Chronic EAE in C57B1/6 mice, preventive treatment regimen; type: in vivo
Excerpt: as §4, §2
With reference to FIG. 9, the non-peptide prokineticin receptor 1 and 2 antagonist PC7 was administered intraperitoneally to 8-12 week old female C57B1/6 mice in which chronic EAE had been induced by immunization with MOG35-55 (100 μg/mouse) and PTX (400 ng/mouse). The PC-7 was given at a dose of 500 μg/kg (n=10). As a control, an equal amount of saline solution was injected (vehicle) (n=10). The treatments began at the time of induction of EAE (preventive treatment), or, more specifically, 4 hours after the induction of EAE. Ten mice per group were used. The graph represents the average daily disease score±standard error of the mean (SEM). The results are representative of three consecutive experiments that gave similar results.

[6] = tested on: relapsing-remitting PLP139-151 induced EAE in SJL mice; assay: Relapsing-remitting EAE in SJL mice, therapeutic treatment regimen; type: in vivo
Excerpt: as §1, §2
With reference to FIG. 7, the non-peptide prokineticin receptor 1 and 2 antagonist PC-7 was administered intraperitoneally to 8-12 week old female SJL mice in which EAE had been induced by immunization with PLP139-151 (100 μg/mouse) in CFA. The PC-7 was given at a dose of 500 μg/kg (n=10). As a control, an equal amount of saline solution was injected (control) (n=10). The treatments began on the appearance of the first symptoms of the disease (Day 11). Ten mice per group were used. The graph represents the average daily disease score±standard error of the mean (SEM). The results are representative of three consecutive experiments that gave similar results.

[7] = SJL mice, 500 μg/kg i.p., preventive, Table 1
[8] = splenocytes, restimulated with PLP139-151, ELISA, vs vehicle
[9] = C57B1/6 mice, 500 μg/kg i.p. from first symptoms (day 12), therapeutic
[10] = SJL mice, 500 μg/kg i.p., preventive, Table 2
[11] = DLN cells, relapsing-remitting EAE
[12] = C57B1/6 mice, 500 μg/kg i.p., preventive
[13] = SJL mice, 500 μg/kg i.p. from first symptoms (Day 11), therapeutic

## CCc1ccc(Cn2c(=O)nc(NCCNC(=N)N)n(Cc3ccc(OC)cc3)c2=O)cc1 [PC1]
[1]; [7]
  Cumulative disease score: 24.8 ± 9.0 *
  Onset of disease (Day): 12.4 ± 1.0 * Day
[1]; SJL mice, 500 μg/kg i.p., preventive, score scale 0 to 5, Table 1
  Peak of disease Severity: 1.7 ± 0.4 *
[1]; SJL mice, 500 μg/kg intraperitoneally from induction of EAE (preventive), Table 1
  Incidence (%): 70% (7/10)
[1]; relapsing-remitting EAE
  severity of the disease (in words): reduction in the severity of the disease
[1]; relapsing-remitting EAE, treated from the time of induction of EAE
  onset of the disease (in words): delay in the onset of the disease
splenocytes; splenocytes 35 days after immunization, mice treated 500 μg/kg per day preventively, restimulated with PLP139-151, vs vehicle
  peptide-specific T cells proliferation: reduction
splenocytes; [8]
  production of IFN-gamma: reduction
  production of IL-4: increasing
  production of TNF: reduction

## COc1ccc(Cn2c(NCCNC(=N)N)nc(=O)n(Cc3ccc(F)cc3)c2=O)cc1 [PC7]
[2]; [9]
  Cumulative disease score: 50.9 ± 11.8
  Incidence (%): 100% (10/10)
  Peak in disease Severity: 3.3 ± 0.3
[2]; chronic EAE, therapeutic treatment, 500 μg/Kg
  severity of the disease (in words): significant reduction in the severity of the disease
DLN cells [3]; DLN cells 10 days after immunization, mice treated 500 μg/kg per day preventively
  peptide-specific T cells proliferation: reduction
DLN cells [3]; DLN cells, chronic EAE
  production of IFN-gamma: reduction
  production of IL-10: increasing
  production of IL-17: reduction
  production of TNF: reduction
[1]; [10]
  Cumulative disease score: 21.2 ± 5.1 *
  Onset of disease (Day): 11.4 ± 0.1 * Day
  Peak in disease Severity: 2.2 ± 0.3 *
[1]; SJL mice, 500 μg/kg i.p. from induction of EAE (preventive), Table 2
  Incidence (%): 90% (9/10)
[1]; relapsing-remitting EAE
  severity of the disease (in words): significantly reduces the severity of the disease
DLN cells [4]; DLN cells 7 days after immunization, mice treated 500 μg/kg per day preventively
  proliferation of lymph node cells: reduced proliferation
DLN cells [4]; [11]
  levels of IL-17A: slight reduction
  levels of interleukin IL-6: increase
  levels of interleukin IL-10: increase
  production of IFN: significantly lower
  production of TNF: significantly lower
[5]; [12]
  Cumulative disease score: 41.1 ± 11.8
  Onset of disease: 16.8 ± 1.7 days
  Peak in disease Severity: 2.5 ± 0.5
[5]; C57B1/6 mice, MOG35-55 and PTX, 500 μg/kg i.p. from induction of EAE (preventive)
  Incidence (%): 90% (9/10)
[5]; chronic EAE, preventive treatment
  severity of the disease (in words): significant reduction in the severity of the disease
[6]; [13]
  Cumulative disease score: 42.3 ± 7.5
  Incidence (%): 100% (10/10)
  Peak in disease Severity: 2.6 ± 0.3
[6]; relapsing-remitting EAE, therapeutic treatment, 500 μg/kg
  severity of the disease (in words): significantly reduces the severity of the disease
